Assay results: PMC11375786, “Induction of Paraptotic Cell Death in Cancer Cells by Triptycene–Peptide Hybrids and the Revised Mechanism of Paraptosis II” (Biochemistry, 2024)
Where two headings read alike, the source gives them in different places. Numbered stars: 1 amine (or outer) side, 2 acyl side, 3 side chain; on linkers, the order of the positions; unused ones are H or OH. Bridge positions count the residues as written; N and C are the ends. Square brackets hold non-standard residues; d marks the D form. Peptide text beside a SMILES is read from it. I, II: the chains in the order shown. X1 = O=C(COc1cccc2c1C1c3c(OCC(=O)NCCCCCCCCN[*:2])cccc3C2c2cccc(OCC(=O)NCCCCCCCCN[*:3])c21)NCCCCCCCCN[*:1]; Cha = N[C@@H](CC1CCCCC1)C(=O)O

Legend:
Jurkat cells [1] = test: Costaining of ER and mitochondria (ERTracker Red, MitoTracker Green), confocal microscopy, Jurkat cells; type: cell-based; settings: 4 2.5 μM, CCCP 40 μM
Description: (§1) Jurkat, HeLa-S3, A549, and IMR90 cells (2.0 × 10^5 cells) were incubated with 4 (final concentration = 2.5 μM (for Jurkat), 5 μM (for HeLa-S3), 10 μM (for A549) and 5 μM and 50 μM (for IMR90)) in cell culture medium at 37 °C under 5% CO2. After incubation, MitoTracker Green (final concentration = 100 nM (for Jurkat) or 500 nM (for HeLa-S3, A549 and IMR90)), or ERTracker Red (final concentration = 500 nM (for Jurkat) or 1 μM (for HeLa-S3, A549 and IMR90)) were applied for 1 h under the same conditions. After washing with PBS, the cells were observed via confocal fluorescence microscopy (FluoView, FV-1000, Olympus). Excitation at 473 nm and emissions from 485 to 585 nm were used for detecting the MitoTracker Green. Excitation at 559 nm and emissions from 570 to 670 nm were used for detecting the ERTracker Red. Exposure time was 20 μs/pixel.

Jurkat cells [2] = test: MTT assay of Jurkat cells treated with 4 or celastrol in the presence of inhibitors; type: cell-based; settings: 4 2.5 μM 1 h; Z-VAD-fmk 15 μM, necrostatin-1 30 μM, 3-MA 10 μM, CCCP 40 μM, DIDS 75 or 100 μM, 2-APB 50 or 100 μM, RuRed 75 μM
Description: (a) Jurkat cells: Jurkat cells (2.0 × 10^5 cells/mL) in RPMI 1640 medium with 10% FBS were pretreated with the inhibitors (Z-VAD-fmk (final concentration = 15 μM), necrostatin-1 (final concentration = 30 μM), 3-MA (final concentration = 10 μM), and DIDS (75 or 100 μM)) for 3 h or pretreated with other inhibitors (CCCP (40 μM), FCCP (40 μM), 2-APB (50 or 100 μM) and RuRed (75 μM)) for 1 h under 5% CO2 at 37 °C. After incubation, 4 (final concentration = 2.5 μM) was added to the cell suspension, which was then incubated for 1 h at 37 °C. To test the effect of celastrol, the cells were pretreated with the aforementioned inhibitors and then incubated with celastrol (5 μM) for 24 h. MTT reagent (5 mg/mL) in PBS (10 μL) was added to the cells. After incubation at 37 °C for 4 h, a formazan lysis solution (10% sodium dodecyl sulfate (SDS) in 0.01 N HCl) (100 μL) was added, and the resultant solution was incubated overnight under the same conditions, followed by measurement of the absorbance at 570 nm using a microplate reader (ARVO, PerkinElmer).

HeLa-S3 cells [3] = test: MTT assay of HeLa-S3 cells treated with 4 or celastrol in the presence of inhibitors; type: cell-based, human; settings: 4 5 μM 1 h; Z-VAD-fmk 100 μM, necrostatin-1 100 μM, 3-MA 5 mM, CCCP 160 μM, DIDS 75 or 100 μM
Description: (b) HeLa-S3 cells: HeLa-S3 cells (2.0 × 10^5 cells/mL) in MEM medium with 10% FBS were pretreated with the inhibitors (3-MA (5 mM), and DIDS (75 or 100 μM)) for 3 h or pretreated with other inhibitors (Z-VAD-fmk (100 μM), necrostatin-1 (100 μM), CCCP (160 μM), and FCCP (80 μM)) for 1 h under 5% CO2 at 37 °C. After the incubation, 4 (final concentration = 5 μM) was added to the cell suspension, which was then incubated for 1 h at 37 °C. Subsequent procedures were the same as those used for the Jurkat cells.

A549 cells [4] = test: MTT assay of A549 cells treated with 4 or celastrol in the presence of inhibitors; type: cell-based, human; settings: 4 10 μM 1 h; Z-VAD-fmk 100 μM, necrostatin-1 100 μM, 3-MA 1 mM, CCCP 250 μM, DIDS 250 μM
Description: (c) A549 cells: A549 cells (2.0 × 10^5 cells/mL) in DMEM medium with 10% FBS were pretreated with the inhibitors (3-MA (1 mM), and DIDS (250 μM)) for 3 h or pretreated with other inhibitors (Z-VAD-fmk (100 μM), necrostatin-1 (100 μM), CCCP (250 μM), and FCCP (10 μM)) for 1 h under 5% CO2 at 37 °C. After incubation, 4 (final concentration = 10 μM) was added to the cell suspension, which was then incubated for 1 h at 37 °C. Subsequent procedures were the same as those used for the Jurkat cells.

[5] = tested on: Ca^2+ concentrations in mitochondria and cytosol in A549 cells; test: Rhod-2/AM and Rhod-4/AM emission (mitochondrial and cytosolic Ca2+) in A549 cells; type: cell-based, human; settings: 4 10 μM 1 h; celastrol 100 μM 2–6 h
Description: (§2) Jurkat, HeLa-S3, and A549 cells (2.0 × 10^5 cells) were preincubated with Rhod-2/AM (final concentration = 5 μM) or Rhod-4/AM (final concentration = 5 μM) in medium under 5% CO2 at 37 °C for 30 min and then treated with 4 (final concentration = 2.5, 5, or 10 μM) for 0, 15, 30, 45, and 60 min. HeLa-S3 and A549 cells were detached by accutase, immediately after which the cells were suspended in 300 μL of cell culture medium and then analyzed on a flow cytometer (FACS Calibur cytometer, Becton), and the data were analyzed using the FlowJo software (FlowJo, LCC).
(§3) Jurkat, HeLa-S3, A549, and IMR90 cells (2.0 × 10^5 cells) were stained with Rhod-2/AM or Rhod-4/AM (final concentration = 5 μM) for 30 min at 37 °C under 5% CO2. The cells were washed with PBS and were treated with 4 (final concentration = 2.5, 5, or 10 μM) in cell culture medium for 30 and 60 min at 37 °C under 5% CO2. To test the effect of celastrol and cisplatin in HeLa-S3 and A549 cells, the cells were incubated with celastrol (final concentration = 100 μM) and cisplatin (final concentration = 100 μM) for 2–6 h. After washing with PBS, the cells were observed via fluorescence microscopy (BZ-X800, Keyence) using a Greiner CELLview Petri dish (35 × 10 mm^2). Emission images were observed using a TRITC filter (excitation 540 nm, emission 605 nm).
(§4) Jurkat, HeLa-S3, A549, and IMR90 cells (8.0 × 10^4 cells) were incubated with CCCP or 2-APB for 1 h and then stained with Rhod-2/AM or Rhod-4/AM (final concentration = 5 μM) for 30 min at 37 °C under 5% CO2. The cells were washed with PBS and were treated with 4 (final concentration = 2.5, 5, or 10 μM) in PBS for 0–60 min at 37 °C in a microplate reader (ARVO, PerkinElmer). Excitation at 540 nm and emission at 590 nm were used for the measurement of Rhod-2/AM and Rhod-4/AM on the microplate reader.

[6] = tested on: intracellular Zn^2+ in Jurkat cells; test: Zinquin fluorescence microscopy in Jurkat cells; type: cell-based; settings: 4 2.5 μM 1 h; celastrol 5 μM, etoposide 5 μM, cisplatin 100 μM 24 h
Description: (§5) Jurkat cells (2.0 × 10^5 cells) were treated with 4 (2.5 μM), etoposide (5 μM), cisplatin (100 μM) and celastrol (5 μM) and stained with Mito-FerroGreen (a probe for labile Fe^2+ in mitochondria) (5 μM) and zinquin (a probe for intracellular Zn^2+) (25 μM). The cell images were observed via fluorescence microscopy.

HeLa-S3 cells [7] = test: Costaining of ER and mitochondria (ERTracker Red, MitoTracker Green), confocal microscopy, HeLa-S3 cells; type: cell-based, human; settings: 4 5 μM, 5 and 10 min; celastrol 100 μM
Description: as §1

A549 cells [8] = test: cells
Description: (§6) HeLa S3 cells (human cervical carcinoma) were cultured in Minimum essential medium (MEM) containing 10% FBS, penicillin, and streptomycin. A549 cells (human lung carcinoma) and IMR90 cells (human fetal lung fibroblast) were cultured in Dulbecco’s modified Eagle’s medium (DMEM) with 10% FBS, penicillin, and streptomycin. All cells were cultured at 37 °C under a humidified atmosphere containing 5% CO2.
(§7) Jurkat, HeLa-S3, A549 cells (2.0 × 10^5 cells/mL) and IMR90 cells (1.0 × 10^5 cells/mL) were incubated in the presence of 3–7 for 1 h, and etoposide, cisplatin and celastrol for 24 h (50 μL) in cell culture medium under CO2 at 37 °C in 96-well plates (BD Falcon). MTT reagent (5 mg/mL) in PBS (10 μL) was then added to the cells. After incubation at 37 °C for 4 h, a formazan lysis solution (10% sodium dodecyl sulfate (SDS) in 0.01 N HCl) (100 μL) was added and the resultant solution was incubated overnight under the same conditions, which was followed by measurement of the absorbance at 570 nm using a microplate reader (ARVO, PerkinElmer).

Jurkat cells [9] = test: cells; settings: read-out: EC50 against Jurkat cells
Description: as §6, §7

IMR90 cells = test: cells; settings: read-out: EC50 against IMR90 cells
Description: as §6, §7

HeLa-S3 cells [10] = test: cells; settings: read-out: EC50 against HeLa-S3 cells
Description: as §6, §7

[11] = tested on: labile Fe^2+ in mitochondria of Jurkat cells; test: Mito-FerroGreen fluorescence microscopy in Jurkat cells; type: cell-based; settings: 4 2.5 μM 1 h; celastrol 5 μM, etoposide 5 μM, cisplatin 100 μM 24 h
Description: as §5

A549 cells [12] = test: Costaining of ER and mitochondria (ERTracker Red, MitoTracker Green), confocal microscopy, A549 cells; type: cell-based, human; settings: 4 10 μM, 15 min; celastrol 100 μM
Description: as §1

[13] = tested on: Ca^2+ concentrations in mitochondria and cytosol in HeLa-S3 cells; test: Rhod-2/AM and Rhod-4/AM emission (mitochondrial and cytosolic Ca2+) in HeLa-S3 cells; type: cell-based, human; settings: 4 5 μM 1 h; for Emission of Rhod-2/AM (mitochondrial Ca2+) in HeLa-S3 cells: celastrol or cisplatin 100 μM 2–6 h
Description: as §2, §3, §4

trypsin = trypsin (Sus scrofa, UniProt P00761); test: Stability after treatment with trypsin (RP-HPLC); settings: 10 μM, trypsin 5 U/mL, 10 mM HEPES pH 7.5, 1 h, 37 °C
Description: 4 and 5 (10 μM) were incubated with trypsin (5 U/mL) in 10 mM 2-[4-(2-hydroxyethyl)-1-piperazinyl]ethanesulfonic acid ((HEPES), pH = 7.5) for 1 h at 37 °C and then analyzed via RP-HPLC (CH3CN (0.1% TFA)/H2O (0.1% TFA) = 20/80 to 70/30 (30 min), 1.0 mL/min).

[14] = MTT, incubation 24 h (etoposide, cisplatin, celastrol)

trypsin, sequence (P00761 9-231): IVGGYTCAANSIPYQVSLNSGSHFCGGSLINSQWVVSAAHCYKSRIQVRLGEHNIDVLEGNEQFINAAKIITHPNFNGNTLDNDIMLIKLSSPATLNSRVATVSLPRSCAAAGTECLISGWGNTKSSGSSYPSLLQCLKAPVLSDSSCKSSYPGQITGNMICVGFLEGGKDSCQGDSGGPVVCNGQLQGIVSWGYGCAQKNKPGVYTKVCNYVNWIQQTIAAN

N#CC(C#N)=NNc1cccc(Cl)c1 [CCCP, carbonyl cyanide 3-chlorophenylhydrazone]
Inhibition of the 4-induced overlap of emission from MitoTracker Green and ERTracker Red in Jurkat cells (Jurkat cells [1]): considerably inhibited
Inhibition of 4-induced cell death in Jurkat cells (Jurkat cells [2]): considerably inhibited
Inhibition of 4-induced cell death in HeLa-S3 cells (HeLa-S3 cells [3]): considerably inhibited
Inhibition of 4-induced cell death in A549 cells (A549 cells [4]): considerably inhibited

CC1=C(O)C(=O)C=C2C1=CC=C1[C@@]2(C)CC[C@@]2(C)[C@@H]3C[C@](C)(C(=O)O)CC[C@]3(C)CC[C@]12C [celastrol]
Emission of Rhod-2/AM (mitochondrial Ca2+) in A549 cells [5]: mitochondrial Ca^2+ overload
Emission of Rhod-4/AM (cytosolic Ca2+) in A549 cells [5]: negligibly changed
Emission from zinquin (intracellular free Zn2+) in Jurkat cells [6]: negligibly enhanced
Overlap of emission from MitoTracker Green and ERTracker Red in HeLa-S3 cells (HeLa-S3 cells [7]): weaker overlap
EC50 (A549 cells [8]; Homo sapiens, A549, read-out: EC50 against A549 cells): 31 ± 2.2 µM
EC50 (Jurkat cells [9]; Homo sapiens, Jurkat, 24 h): 0.9 ± 0.1 µM
EC50 (IMR90 cells; Homo sapiens, IMR-90, 24 h): > 25 µM
EC50 (HeLa-S3 cells [10]; Homo sapiens, HeLa S3, 24 h): 22 ± 6 µM
Emission from Mito-FerroGreen (free Fe2+ in mitochondria) in Jurkat cells [11]: negligibly enhanced
Overlap of emission from MitoTracker Green and ERTracker Red in A549 cells (A549 cells [12]): weaker overlap
Emission of Rhod-4/AM (cytosolic Ca2+) in HeLa-S3 cells ([13]; celastrol 100 μM 2–6 h): mitochondrial and cytoplasmic Ca^2+ overload
Emission of Rhod-2/AM (mitochondrial Ca2+) in HeLa-S3 cells [13]: mitochondrial and cytoplasmic Ca^2+ overload

N.N.[Cl][Pt][Cl] [cisplatin]
Emission from zinquin (intracellular free Zn2+) in Jurkat cells [6]: increases in both free-Fe^2+ and free-Zn^2+
EC50 (A549 cells [8]; read-out: EC50 against A549 cells, MTT, incubation 24 h (etoposide, cisplatin, celastrol)): > 100 µM
EC50 (Jurkat cells [9]; [14]): 5.8 ± 1.4 µM
EC50 (IMR90 cells; [14]): > 12.5 µM
EC50 (HeLa-S3 cells [10]; [14]): 15 ± 3.4 µM
Emission from Mito-FerroGreen (free Fe2+ in mitochondria) in Jurkat cells [11]: increases in both free-Fe^2+ and free-Zn^2+
Emission of Rhod-2/AM (mitochondrial Ca2+) in HeLa-S3 cells [13]: weak enhancement

NCCCC[C@@H]1NC(=O)CNC(=O)[C@H](CCC(=O)NCCCCCCCCNC(=O)COc2cccc3c2C2c4c(OCC(=O)NCCCCCCCCNC(=O)CC[C@@H]5NC(=O)[C@H](CC6CCCCC6)NC(=O)[C@H](CCCCN)NC(=O)[C@H](CCCCN)NC(=O)[C@H](CCCCN)NC(=O)CNC5=O)cccc4C3c3cccc(OCC(=O)NCCCCCCCCNC(=O)CC[C@@H]4NC(=O)[C@H](CC5CCCCC5)NC(=O)[C@H](CCCCN)NC(=O)[C@H](CCCCN)NC(=O)[C@H](CCCCN)NC(=O)CNC4=O)c32)NC(=O)[C@H](CC2CCCCC2)NC(=O)[C@H](CCCCN)NC(=O)[C@H](CCCCN)NC1=O [compound 5] (I: cyclo(KKK[Cha]EG) / II: cyclo(KKK[Cha]EG) / III: cyclo(KKK[Cha]EG); linker I:5-II:5-III:5 via X1)
EC50 (A549 cells [8]; read-out: EC50 against A549 cells, MTT, incubation 1 h at 37 °C): 9.5 ± 0.1 µM
EC50 (Jurkat cells [9]; MTT, incubation 1 h at 37 °C): 1.6 ± 0.1 µM
EC50 (IMR90 cells; MTT, incubation 1 h at 37 °C): > 25 µM
EC50 (HeLa-S3 cells [10]; MTT, incubation 1 h at 37 °C): 8.5 ± 0.4 µM
Stability against trypsin digestion (trypsin): negligible decomposition
